#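 A five-concentration, 48-hour dose response in 96-well plates underlies each endpoint, interpolated linearly between surrounding concentrations. GI50 marks 50% less growth. TGI: concentration producing complete growth inhibition.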 Where a SMILES comes first, the peptide text is derived from it. [ ]: non-standard residue; d: D form. The star is where a group is joined. Cbz = O=C(OCc1ccccc1)*; Boc = CC(C)(C)OC(=O)*; Aib = CC(C)(N)C(=O)O; OBn = c1ccc(CO*)cc1; OtBu = CC(C)(C)O*; βAla = NCCC(=O)O
# Tests used:
# Experiment in all cases: growth of human tumour cells (NCI), 48 h
# [1] = test system: SNB-19 CNS
# [2] = test system: BT-549 breast
# [3] = test system: HCT-116 colon
# [4] = test system: SK-MEL-5 melanoma
# [5] = test system: HOP-62 NSCLC
# [6] = test system: SK-OV-3 ovarian
# [7] = test system: OVCAR-4 ovarian
# [8] = test system: T-47D breast
# [9] = test system: LOX IMVI melanoma
# [10] = test system: TK-10 renal
Structure (SMILES),TGI [1],TGI [2],TGI [3],TGI [4],TGI [5],TGI [6],TGI [7],TGI [8],TGI [9],TGI [10],GI50 [1],GI50 [3],GI50 [9],GI50 [4],GI50 [5],GI50 [7],GI50 [8],GI50 [10]
COc1ccc(OC)c2cc(Cc3ccc(N(C)C)cc3)c(=O)c(Cc3ccc(N(C)C)cc3)cc12,> 100 µM,> 100 µM,> 100 µM,> 100 µM,> 100 µM,> 100 µM,> 100 µM,> 100 µM,–,–,–,–,–,–,–,–,–,–
CCCCSc1n/c(=C\c2ccc(N(C)C)cc2)c2nnnn12,> 100 µM,> 100 µM,> 100 µM,–,> 100 µM,> 100 µM,> 100 µM,> 100 µM,> 100 µM,> 100 µM,–,–,–,–,–,–,–,–
NC(CCCCNC(=O)OCc1ccccc1)C(=O)NC(CCCCNC(=O)OCc1ccccc1)C(=O)ON1C(=O)CCC1=O (stereo not drawn),> 100 µM,> 100 µM,> 100 µM,> 100 µM,> 100 µM,–,–,> 100 µM,–,> 100 µM,–,–,–,–,–,–,–,–
CC(C)(C)OC(=O)CC(NC(=O)OC(C)(C)C)C(=O)NC(CCCCNC(=O)OCc1ccccc1)C(=O)NC(C)(C)C(=O)NCCC(=O)OCc1ccccc1 (stereo not drawn) (Boc-D(OtBu)K(Cbz)[Aib][βAla]-OBn; configuration not given here),> 100 µM,> 100 µM,> 100 µM,> 100 µM,> 100 µM,> 100 µM,> 100 µM,> 100 µM,> 100 µM,> 100 µM,–,–,–,–,–,–,–,–
COc1cc2ccnc3c2c(c1O)N(C)C=C3,> 62.9 µM,22.9 µM,16.4 µM,32.5 µM,46.4 µM,27.4 µM,32.4 µM,> 24.7 µM,> 50.6 µM,32.9 µM,–,–,–,–,–,–,–,–
CSC1SCC2C(=O)N(C)C3(CC3C)C(=O)OCC(NC(=O)c3nc4ccccc4cc3O)C(=O)NC(C)C(=O)N(C)C1C(=O)N(C)C1(CC1C)C(=O)OCC(NC(=O)c1nc3ccccc3cc1O)C(=O)NC(C)C(=O)N2C (stereo not drawn),6.9 µM,–,16.4 µM,–,–,17.2 µM,0.000325 µM,> 100 µM,< 0.0001 µM,0.000416 µM,–,–,–,–,–,–,–,–
O=C(NCCO)c1ccc(Cl)cc1,> 100 µM,> 100 µM,> 100 µM,> 100 µM,> 100 µM,–,> 100 µM,> 100 µM,> 100 µM,> 100 µM,–,–,–,–,–,–,–,–
COC(=O)c1cncc2c1CC1C3(C(=O)OC)C=NC(C4C(CO)=CCC43)C21C (stereo not drawn),> 100 µM,–,> 100 µM,> 100 µM,> 100 µM,–,> 100 µM,> 100 µM,> 100 µM,> 100 µM,–,–,–,–,–,–,–,–
COc1ccc2c(c1)CCc1c-2n(CCN(C)C)c2ccc(OC)cc12,36.5 µM,> 100 µM,> 100 µM,> 100 µM,43.1 µM,87.1 µM,68.7 µM,85.4 µM,> 100 µM,80.3 µM,–,–,–,–,–,–,–,–
CSc1ncc2c(n1)-c1ccccc1OC2N1CCCC1 (stereo not drawn),> 100 µM,> 100 µM,> 100 µM,> 100 µM,–,> 100 µM,> 100 µM,> 100 µM,> 100 µM,> 100 µM,–,–,–,–,–,–,–,–
COC(=O)[C@@H]1N2C(=S)N(c3ccccc3)C(=O)[C@H]2SC1(C)C,> 100 µM,> 100 µM,> 100 µM,> 100 µM,> 100 µM,> 100 µM,> 100 µM,> 100 µM,–,> 100 µM,–,–,–,–,–,–,–,–
CCN(CC)CCCNc1ccc2nnn3c4ccc(O)cc4c(=O)c1c23,22.8 µM,27 µM,16.3 µM,22.6 µM,22.6 µM,22.1 µM,19.3 µM,39.9 µM,13.1 µM,17.6 µM,–,–,–,–,–,–,–,–
CC(C)(C)N1Cc2ccccc2/C(=C/Sc2ccccc2)C1=O,30.9 µM,20.1 µM,19.8 µM,20.2 µM,33.8 µM,31.2 µM,19.6 µM,45.3 µM,11.3 µM,34.8 µM,–,–,–,–,–,–,–,–
COc1ccc(CNc2nc(NCc3ccc(OC)cc3)nc(N3CCOCC3)n2)cc1,> 100 µM,> 100 µM,> 100 µM,24.4 µM,> 100 µM,> 100 µM,> 100 µM,> 100 µM,–,28.8 µM,–,–,–,–,–,–,–,–
COC(OC)C(O)C1OC=CC1n1cnc2c(N)ncnc21 (stereo not drawn),–,> 100 µM,> 100 µM,> 100 µM,> 100 µM,> 100 µM,> 100 µM,> 100 µM,> 100 µM,> 100 µM,–,–,–,–,–,–,–,–
Cc1[nH]c(-c2ccccc2)c(-c2ccc(Cl)cc2)c1C(=O)ONC(=O)c1ccccc1,19.3 µM,9.94 µM,5.24 µM,14.1 µM,5.45 µM,32.4 µM,–,18.1 µM,2.87 µM,9.76 µM,–,–,–,–,–,–,–,–
COC(=O)C(COC(=O)/C=C/c1ccc(OC(C)=O)c(OC(C)=O)c1)OC(=O)/C=C/c1ccc(OC(C)=O)c(OC(C)=O)c1 (stereo not drawn),22.2 µM,33.5 µM,16.3 µM,28.3 µM,58.2 µM,–,35.1 µM,–,23.4 µM,32.8 µM,–,–,–,–,–,–,–,–
CC(C)n1c(=O)n(-c2ccccc2)n(C(C)(C)C)c1=O,> 100 µM,> 100 µM,> 100 µM,> 100 µM,> 100 µM,> 100 µM,> 100 µM,–,> 100 µM,> 100 µM,–,–,–,–,–,–,–,–
COc1cccc(-c2nc3sccn3c2-c2ccnc(NCCNC(=O)Nc3cccc(C(F)(F)F)c3)n2)c1,> 100 µM,–,11.6 µM,15.9 µM,42.4 µM,–,34.1 µM,13.8 µM,> 100 µM,18.8 µM,7.77 µM,3.45 µM,4.11 µM,4.27 µM,6.71 µM,3.78 µM,3.77 µM,3.6 µM
C=C1C[C@]23C[C@@]1(O)CC[C@H]2[C@@]12C=C[C@H](O)[C@@](C)(C(=O)O1)[C@H]2[C@@H]3C(=O)O,> 100 µM,–,> 100 µM,> 100 µM,> 100 µM,> 100 µM,> 100 µM,–,> 100 µM,> 100 µM,–,–,–,–,–,–,–,–
CN1CC(c2ccccc2)N(CCCCN2CC(c3ccccc3)N(C)CC2c2ccccc2)CC1c1ccccc1 (stereo not drawn),> 100 µM,> 100 µM,24.2 µM,> 100 µM,> 100 µM,> 100 µM,> 100 µM,–,39.1 µM,> 100 µM,–,–,–,–,–,–,–,–

# Source: PubChem BioAssay (NCI)
